Assay results published in patent US20120202690A1, “HERBICIDAL COMPOUNDS” (SYNGENTA LIMITED, priority 2009, published 2012).

Tests used:
Assay type in all cases: in vivo
[1] = system: Amaranthus retroflexus (AMARE); assay: Pre-emergence biological efficacy, glasshouse, 1000 g/ha, evaluated after 13 days (100=total damage to plant; 0=no damage to plant); conditions: rate 1,000 g/ha; for pest or weed control at 1000 g/ha: Amaranthus retroflexus, 312 h, read-out: Percentage damage caused to weed species, pre-emergence, AMARE
Experimental: (§1) Seeds of Alopecurus myosuroides (ALOMY), Setaria faberi (SETFA), Echinochloa crus-galli (ECHCG), Solanum nigrum (SOLNI), Amaranthus retroflexus (AMARE) and Ipomoea hederaceae (IPOHE) were sown in standard soil in pots. […] The test plants were then grown under controlled conditions in the glasshouse (at 24/16° C., day/night; 14 hours light; 65% humidity) and watered twice daily. […]

Solanum nigrum (SOLNI) [2] = assay: as above; conditions: rate 1,000 g/ha; for pest or weed control at 1000 g/ha: Solanum nigrum, 312 h, read-out: Percentage damage caused to weed species, pre-emergence, SOLNI
Experimental: as §1

[3] = system: Echinochloa crus-galli (ECHCG); assay: as above; conditions: rate 1,000 g/ha; for pest or weed control at 1000 g/ha: Echinochloa crus-galli, 312 h, read-out: Percentage damage caused to weed species, pre-emergence, ECHCG
Experimental: as §1

[4] = system: Ipomoea hederaceae (IPOHE); assay: as above; conditions: rate 1,000 g/ha; for pest or weed control at 1000 g/ha: Ipomoea, 312 h, read-out: Percentage damage caused to weed species, pre-emergence, IPOHE
Experimental: as §1

Setaria faberi (SETFA) [5] = assay: as above; conditions: rate 1,000 g/ha; for pest or weed control at 1000 g/ha: Setaria faberi, 312 h, read-out: Percentage damage caused to weed species, pre-emergence, SETFA
Experimental: as §1

[6] = system: Alopecurus myosuroides (ALOMY); assay: as above; conditions: rate 1,000 g/ha; for pest or weed control at 1000 g/ha: Alopecurus myosuroides, 312 h, read-out: Percentage damage caused to weed species, pre-emergence, ALOMY
Experimental: as §1

[7] = system: Amaranthus retroflexus (AMARE); assay: Post-emergence biological efficacy, glasshouse, 500 or 1000 g/ha, evaluated after 13 days (100=total damage to plant; 0=no damage to plant); conditions: rate 1,000 g/ha; for pest or weed control at 1000 g/ha: Amaranthus retroflexus, 312 h, read-out: Percentage damage caused to weed species, post-emergence, AMARE
Experimental: as §1, with “Echinochloa […]),” for “Echinochloa crus-galli (ECHCG),”, “grown on” for “grown”, “in a” for “in the”

Solanum nigrum (SOLNI) [8] = assay: as above; conditions: rate 1,000 g/ha; for pest or weed control at 1000 g/ha: Solanum nigrum, 312 h, read-out: Percentage damage caused to weed species, post-emergence, SOLNI
Experimental: as §1, with “Echinochloa […]),” for “Echinochloa crus-galli (ECHCG),”, “grown on” for “grown”, “in a” for “in the”

[9] = system: Echinochloa crusgaffi (ECHCG); assay: as above; conditions: rate 1,000 g/ha; for pest or weed control at 1000 g/ha: Echinochloa, 312 h, read-out: Percentage damage caused to weed species, post-emergence, ECHCG
Experimental: as §1, with “Echinochloa […]),” for “Echinochloa crus-galli (ECHCG),”, “grown on” for “grown”, “in a” for “in the”

[10] = system: Ipomoea hederaceae (IPOHE); assay: as above; conditions: rate 1,000 g/ha; for pest or weed control at 1000 g/ha: Ipomoea, 312 h, read-out: Percentage damage caused to weed species, post-emergence, IPOHE
Experimental: as §1, with “Echinochloa […]),” for “Echinochloa crus-galli (ECHCG),”, “grown on” for “grown”, “in a” for “in the”

Setaria faberi (SETFA) [11] = assay: as above; conditions: rate 1,000 g/ha; for pest or weed control at 1000 g/ha: Setaria faberi, 312 h, read-out: Percentage damage caused to weed species, post-emergence, SETFA
Experimental: as §1, with “Echinochloa […]),” for “Echinochloa crus-galli (ECHCG),”, “grown on” for “grown”, “in a” for “in the”

[12] = system: Alopecurus myosuroides (ALOMY); assay: as above; conditions: rate 1,000 g/ha; for pest or weed control at 1000 g/ha: Alopecurus myosuroides, 312 h, read-out: Percentage damage caused to weed species, post-emergence, ALOMY
Experimental: as §1, with “Echinochloa […]),” for “Echinochloa crus-galli (ECHCG),”, “grown on” for “grown”, “in a” for “in the”

Row | SMILES | pest or weed control at 1000 g/ha [1] [%] | pest or weed control at 1000 g/ha (Solanum nigrum (SOLNI) [2]) [%] | pest or weed control at 1000 g/ha [3] [%] | pest or weed control at 1000 g/ha [4] [%] | pest or weed control at 1000 g/ha (Setaria faberi (SETFA) [5]) [%] | pest or weed control at 1000 g/ha [6] [%] | pest or weed control at 1000 g/ha [7] [%] | pest or weed control at 1000 g/ha (Solanum nigrum (SOLNI) [8]) [%] | pest or weed control at 1000 g/ha [9] [%] | pest or weed control at 1000 g/ha [10] [%] | pest or weed control at 1000 g/ha (Setaria faberi (SETFA) [11]) [%] | pest or weed control at 1000 g/ha [12] [%] | other results
1 | CCCCCC(C)OC(=O)c1nc(-c2ccc(Cl)c(OC)c2F)nc2[nH]cc(C)c12 (stereo not drawn) [Compound 1-79, 2-(4-Chloro-2-fluoro-3-methoxyphenyl)-4-(hept-2-yloxycarbonyl)-5-methyl-7H-pyrrolo[2,3-d]pyrimidine] | 0 | 0 | 0 | 0 | 0 | 0 | 10 | 10 | 0 | 20 | 0 | 0 | –
2 | C=CCOC(=O)c1nc(-c2ccc(Cl)c(OC)c2F)nc2[nH]cc(C)c12 [Compound 1-80, 2-(4-Chloro-2-fluoro-3-methoxyphenyl)-5-methyl-4-(prop-2-enyloxycarbonyl)-7H-pyrrolo[2,3-d]pyrimidine] | 0 | 0 | 0 | 0 | 0 | 0 | 60 | 80 | 10 | 40 | 0 | 0 | –
3 | CCCCOCCOC(=O)c1nc(-c2ccc(Cl)c(OC)c2F)nc2[nH]cc(C)c12 [Compound 1-83, 4-[(2-n-Butoxy)-ethoxycarbonyl]-2-(4-chloro-2-fluoro-3-methoxyphenyl)-5-methy-7H-pyrrolo[2,3-d]pyrimidine] | 40 | 30 | 0 | 20 | 0 | 0 | 70 | 70 | 10 | 40 | 10 | 0 | –
4 | CCCCOCC(C)OC(=O)c1nc(-c2ccc(Cl)c(OC)c2F)nc2[nH]cc(C)c12 (stereo not drawn) [Compound 1-84, 4-[(1-n-Butoxy)-prop-2-yloxycarbonyl]-2-(4-chloro-2-fluoro-3-methoxyphenyl)-5-methyl-7H-pyrrolo[2,3-d]pyrimidne] | 20 | 40 | 10 | 70 | 10 | 10 | 60 | 70 | 0 | 40 | 10 | 10 | –
5 | COCCOCCOC(=O)c1nc(-c2ccc(Cl)c(OC)c2F)nc2[nH]cc(C)c12 [Compound 1-85, 2-(4-Chloro-2-fluoro-3-methoxyphenyl)-4-{2-[(2-methoxy)-ethoxy]-ethoxycarbonyl}-5-methyl-7H-pyrrolo[2,3-d]pyrimidine] | 100 | 70 | 0 | 10 | 0 | 20 | 100 | 90 | 60 | 40 | 40 | 10 | –
6 | COc1c(Cl)ccc(-c2nc(C(=O)OCc3ccco3)c3c(C)c[nH]c3n2)c1F [Compound 1-87, 2-(4-Chloro-2-fluoro-3-methoxyphenyl)-4-(2-furanyl-methoxycarbonyl)-5-methy-7H-pyrrolo[2,3-d]pyrimidine] | – | – | – | – | – | – | – | – | – | – | – | – | Percentage damage caused to weed species, pre-emergence, AMARE [1]: 10%; Percentage damage caused to weed species, pre-emergence, SOLNI (Solanum nigrum (SOLNI) [2]): 20%; Percentage damage caused to weed species, pre-emergence, ECHCG [3]: 0%; Percentage damage caused to weed species, pre-emergence, IPOHE [4]: 10%; Percentage damage caused to weed species, pre-emergence, SETFA (Setaria faberi (SETFA) [5]): 0%; Percentage damage caused to weed species, pre-emergence, ALOMY [6]: 0%; Percentage damage caused to weed species, post-emergence, AMARE [7]: 100%; Percentage damage caused to weed species, post-emergence, SOLNI (Solanum nigrum (SOLNI) [8]): 90%; Percentage damage caused to weed species, post-emergence, ECHCG [9]: 0%; Percentage damage caused to weed species, post-emergence, IPOHE [10]: 50%; Percentage damage caused to weed species, post-emergence, SETFA (Setaria faberi (SETFA) [11]): 10%; Percentage damage caused to weed species, post-emergence, ALOMY [12]: 0%
7 | COc1c(Cl)ccc(-c2nc(C(=O)OCC3CCCO3)c3c(C)c[nH]c3n2)c1F (stereo not drawn) [Compound 1-88, 2-(4-Chloro-2-fluoro-3-methoxyphenyl)-5-methyl-4-(tetrahydrofuran-2-yl-methoxycarbonyl)-7H-pyrrolo[2,3-d]pyrimidine] | 10 | 20 | 10 | 10 | 0 | 0 | 50 | 70 | 10 | 50 | 40 | 10 | –
8 | COC(=O)c1nc(-c2ccc(Cl)c(OC)c2F)nc2[nH]c(-c3ccccc3)c(C)c12 [Compound 1-108, 2-(4-Chloro-2-fluoro-3-methoxyphenyl)-4-methoxycarbonyl-5-methyl-6-phenyl-7H-pyrrolo[2,3-d]pyrimidine] | 0 | 0 | 0 | 0 | 0 | 0 | 0 | 30 | 0 | 50 | 0 | 0 | –
9 | COC(=O)c1nc(-c2ccc(Cl)c(N(C)C)c2F)nc2[nH]cc(C)c12 [Compound 1-116, 2-(4-Chloro-3-dimethylamino-2-fluorophenyl)-4-methoxycarbonyl-5-methyl-7H-pyrrolo[2,3-d]pyrimidine] | 0 | 0 | 0 | 0 | 0 | 0 | 50 | 40 | 0 | 50 | 20 | 0 | –
10 | COC(=O)c1nc(-c2ccc(Cl)c(N(C)C)c2F)nc2[nH]c(C)cc12 [Compound 1-118, 2-(4-chloro-3-dimethylamino-2-fluorophenyl)-4-methoxycarbonyl-6-methyl-7H-pyrrolo[2,3-d]pyrimidine] | 40 | 70 | 10 | 40 | 20 | 0 | 100 | 80 | 50 | 50 | 70 | 10 | –
